This passage reports inhibition, Ratio and Ratio IC50 results from ChEMBL document CHEMBL4118274, “Synthesis and biological evaluation of pyridine-linked indanone derivatives: Potential agents for inflammatory bowel disease” (Bioorg Med Chem Lett, 2018).

The target of assay [1] is Tumor necrosis factor (Homo sapiens) (UniProt P01375). In words: Inhibition of TNFalpha (unknown origin)-induced adhesion of BCECF fluorescence-labeled human U937 cells to human HT-29 cells at 10 uM measured at 3 hrs post TNFalpha stimulation relative to control.
Tumor necrosis factor (Homo sapiens), sequence (P01375 whole entry): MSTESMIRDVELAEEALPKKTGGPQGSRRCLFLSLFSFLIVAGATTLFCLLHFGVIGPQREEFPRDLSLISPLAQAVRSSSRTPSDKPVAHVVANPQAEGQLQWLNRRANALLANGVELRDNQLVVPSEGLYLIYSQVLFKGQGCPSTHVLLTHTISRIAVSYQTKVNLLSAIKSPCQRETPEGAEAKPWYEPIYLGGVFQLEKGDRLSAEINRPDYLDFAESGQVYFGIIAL
Assay [2] shares this target. As to the kind of experiment: Potency index, ratio of test compound activity to 5-aminosalicylate activity for inhibition of TNFalpha (unknown origin)-induced adhesion of BCECF fluorescence-labeled human U937 cells to human HT-29 cells.
For assay [3], the system named is Rattus norvegicus. In words: In vivo of inhibition of TNFalpha-induced decrease in E-cadherin expression in TNBS-induced colitis Sprague-Dawley rat model at 25 mg/kg/day, po administered on day of TNBS administration and on four consecutive days measured on day 6 by Western blot method. Type of assay: functional, organism-based. On the technique in general: A western blot detects proteins with antibodies after separation by electrophoresis.

Assay [4] concerns Rattus norvegicus. In words: In vivo of inhibition of TNFalpha-induced up-regulation of MCP-1 expression in TNBS-induced colitis Sprague-Dawley rat model at 25 mg/kg/day, po administered on day of TNBS administration and on four consecutive days measured on day 6 by Western blot method. Type of assay: functional, organism-based.
Assay [5] has as its system Rattus norvegicus. As to the kind of experiment: In vivo of inhibition of TNBS-induced up-regulation of TNFalpha in TNBS-induced colitis Sprague-Dawley rat model at 25 mg/kg/day, po administered on day of TNBS administration and on four consecutive days measured on day 6 by Western blot method. The class given is functional, organism-based.
For assay [6], the target named is Tumor necrosis factor (Homo sapiens) (UniProt P01375). As to the kind of experiment: Inhibition of TNFalpha (unknown origin)-induced NFkappaB transcriptional activity in human HT-29 cells at 10 uM pretreated with cells for 1 hr followed by TNFalpha induction for 3 hrs by dual luciferase reporter gene assay. Type of assay: cell-based. (Reporter assays use an easily measured gene product as a stand-in for the process of interest.)

The target is the same in assay [7]. In words: Inhibition of TNFalpha (unknown origin)-induced decrease in E-cadherin expression in human HT-29 cells at 10 uM pretreated with cells for 1 hr followed by TNFalpha induction for 3 hrs by Western blot analysis. The class given is cell-based.
Assay [8] has the same target. In words: Inhibition of TNFalpha (unknown origin)-induced SNAIL expression in human HT-29 cells at 10 uM pretreated with cells for 1 hr followed by TNFalpha induction for 3 hrs by Western blot analysis. The class given is cell-based.
For assay [9] the target is unchanged. In words: Inhibition of TNFalpha (unknown origin)-induced ICAM-1 expression in human HT-29 cells at 10 uM preincubated with cells for 1 hr followed by TNFalpha induction of 3 hrs by Western blot analysis. Type of assay: cell-based.
The subject of assay [10] is Rattus norvegicus. As to the kind of experiment: In vivo of inhibition of TNBS-induced increase in myeloperoxidase level in TNBS-induced colitis Sprague-Dawley rat model colon tissue at 25 mg/kg/day, po administered on day of TNBS administration and on four consecutive days measured on day 6. Type of assay: functional, organism-based.
In assay [11] the test system is Rattus norvegicus. As to the kind of experiment: In vivo of inhibition of TNBS-induced up-regulation of IL-1beta in TNBS-induced colitis Sprague-Dawley rat model at 25 mg/kg/day, po administered on day of TNBS administration and on four consecutive days measured on day 6 by Western blot method. Type of assay: functional, organism-based.
For assay [12], the target named is Tumor necrosis factor (Homo sapiens) (UniProt P01375). In words: Inhibition of TNFalpha (unknown origin)-induced MCP-1 expression in human HT-29 cells at 10 uM preincubated with cells for 1 hr followed by TNFalpha induction of 3 hrs by Western blot analysis. Type of assay: cell-based.
For assay [13], the system named is Rattus norvegicus. In words: In vivo of inhibition of TNBS-induced increase in colon weight in TNBS-induced colitis Sprague-Dawley rat model at 25 mg/kg/day, po administered on day of TNBS administration and on four consecutive days measured on day 6. Type of assay: functional, organism-based.
The subject of assay [14] is Rattus norvegicus. As to the kind of experiment: In vivo of inhibition of TNBS-induced decrease in body weight in TNBS-induced colitis Sprague-Dawley rat model at 25 mg/kg/day, po administered on day of TNBS administration and on four consecutive days measured on day 6. Type of assay: functional, organism-based.
The test system of assay [15] is Rattus norvegicus. In words: In vivo of inhibition of TNFalpha-induced up-regulation of ICAM-1 expression in TNBS-induced colitis Sprague-Dawley rat model at 25 mg/kg/day, po administered on day of TNBS administration and on four consecutive days measured on day 6 by Western blot method. The class given is functional, organism-based.
The subject of assay [16] is Rattus norvegicus. In words: In vivo of inhibition of TNFalpha-induced SNAIL expression in TNBS-induced colitis Sprague-Dawley rat model at 25 mg/kg/day, po administered on day of TNBS administration and on four consecutive days measured on day 6 by Western blot method. Type of assay: functional, organism-based.
For assay [17], the target named is Tumor necrosis factor (Homo sapiens) (UniProt P01375). In words: Inhibition of TNFalpha (unknown origin)-induced adhesion of BCECF fluorescence-labeled human U937 cells to human HT-29 cells at 20 mM measured at 3 hrs post TNFalpha stimulation relative to control.
Assay [18] concerns Rattus norvegicus. In words: In vivo of inhibition of TNBS-induced increase in colon weight in TNBS-induced colitis Sprague-Dawley rat model at 300 mg/kg/day, po administered on day of TNBS administration and on four consecutive days measured on day 6. Type of assay: functional, organism-based.
In assay [19] the test system is Rattus norvegicus. As to the kind of experiment: In vivo of inhibition of TNBS-induced decrease in body weight in TNBS-induced colitis Sprague-Dawley rat model at 300 mg/kg/day, po administered on day of TNBS administration and on four consecutive days measured on day 6. Type of assay: functional, organism-based.
Assay [20] has as its system Rattus norvegicus. As to the kind of experiment: In vivo of inhibition of TNBS-induced increase in myeloperoxidase level in TNBS-induced colitis Sprague-Dawley rat model colon tissue at 300 mg/kg/day, po administered on day of TNBS administration and on four consecutive days measured on day 6. The class given is functional, organism-based.
Assay [21] concerns the target Tumor necrosis factor (Homo sapiens) (UniProt P01375). In words: Potency index, ratio of 5-aminosalicylate IC50 to test compound IC50 for TNFalpha (unknown origin)-induced adhesion of BCECF fluorescence-labeled human U937 cells to human HT-29.

Molecules are shown by their SMILES. Calls of active or inactive are those of the source. The rule behind the calls is not given here.

For `O=C1/C(=C/c2cccnc2)Cc2cccc(O)c21`, the inhibition (commonly the percentage by which the read-out fell short of the control) in assay [1] stood at 46.1%. Moreover, in [2], the Ratio fell in the range of 7 to 23.
`CC(C)Oc1cccc2c1C/C(=C\c1ccncc1)C2=O`: the inhibition in assay [1] stood at 60.9%.
In assay [1], `CC(C)Oc1ccc2c(c1)C(=O)/C(=C/c1ccncc1)C2` had an inhibition of 45.7%.
Still for that read-out and setting: to `COc1ccc2c(c1)C(=O)/C(=C/c1ccncc1)C2` belongs 4.1%.
In the case of `O=C1/C(=C/c2ccncc2)Cc2cc(O)ccc21`, the inhibition in [1] turned out to be 26.6%. Moreover, in assay [2], the Ratio lay in the range of 7 to 23.
`O=C1/C(=C/c2ccncc2)Cc2c(O)cccc21`: the inhibition result (in the assay with Rattus norvegicus [3]; in the assay on Rattus norvegicus [4]; in the assay on Rattus norvegicus [5]; in assay [6]; in [7]; in [8]) was “Active” throughout. The inhibition result (in assay [9]; in the assay with Rattus norvegicus [10]; with Rattus norvegicus [11]; in assay [12]; with Rattus norvegicus [13]; in the assay on Rattus norvegicus [14]) was “Active” each time. Besides, the inhibition entry in the assay on Rattus norvegicus [15] and with Rattus norvegicus [16] was “Active” each time. The inhibition in assay [1] was determined as 78%. The Ratio in assay [2] was in the range of 7 to 23.
With `O=C1/C(=C/c2ccccn2)Cc2c(O)cccc21`, in [1], the inhibition came to 64.5%. Besides, in [2], the Ratio was 7 to 23.
As to `O=C1/C(=C/c2cccnc2)Cc2ccc(O)cc21`, the inhibition entry in assay [6] was “Active”. Moreover, the inhibition result in assay [7] is “inactive”. In assay [1], this molecule showed an inhibition of 74.7%. In assay [2], the Ratio was in the range of 7 to 23.
The molecule `Nc1ccc(O)c(C(=O)O)c1` yielded an inhibition in assay [17] of 52.1%.
For the molecule `O=C1/C(=C/c2ccncc2)Cc2cccc(O)c21`, in assay [6], the inhibition result was “Active”. The inhibition entry in [7] was “inactive”. The inhibition in assay [1] came out at 74.6%. Moreover, in assay [2], the Ratio is 7 to 23.
For `O=C1/C(=C/c2cccnc2)Cc2c(O)cccc21` the same measures were “Active”, “inactive”, 70.8% and 7 to 23.
The molecule `CCOc1ccc2c(c1)C(=O)/C(=C/c1ccncc1)C2` displayed an inhibition in [1] of 7.3%.
Take `O=C(O)c1cc(/N=N/c2ccc(S(=O)(=O)Nc3ccccn3)cc2)ccc1O`: the inhibition result in the assay with Rattus norvegicus [18], in the assay on Rattus norvegicus [19] and in the assay with Rattus norvegicus [20] was “Active” each time.
As to `O=C1/C(=C/c2cccnc2)Cc2cc(O)ccc21`, the inhibition in [1] is 67%. Further, the Ratio in assay [2] lay in the range of 7 to 23.
`O=C1/C(=C/c2ccccn2)Cc2ccc(O)cc21` registered an inhibition in assay [1] of 54.8%. Further, the Ratio in assay [2] was in the range of 7 to 23.
The corresponding values for `O=C1/C(=C/c2ccccn2)Cc2cccc(O)c21` are 46.2% and 7 to 23.
Molecule `COc1cccc2c1C/C(=C\c1ccncc1)C2=O` had an inhibition in [1] of 5.9%.
Consider `O=C1/C(=C/c2ccncc2)Cc2ccc(O)cc21`, for which the inhibition entry (in the assay on Rattus norvegicus [3]; in the assay with Rattus norvegicus [4]; with Rattus norvegicus [5]; in assay [6]; in [7]; in assay [8]) was “Active” in each case. Also, the inhibition result (in assay [9]; in the assay on Rattus norvegicus [10]; with Rattus norvegicus [11]; in [12]; in the assay with Rattus norvegicus [13]; in the assay with Rattus norvegicus [14]) was “Active” in each case. Besides, the inhibition result with Rattus norvegicus [15] and in the assay on Rattus norvegicus [16] was “Active” each time. The Ratio IC50 in assay [21] was greater than 10000. This molecule also came in with an inhibition in assay [1] of 85.5%. In addition, the Ratio in assay [2] lay within 7 to 23.
For the molecule `CCOc1cccc2c1C/C(=C\c1ccncc1)C2=O`, the inhibition in [1] amounted to 51.2%.
For `O=C1/C(=C/c2ccccn2)Cc2cc(O)ccc21`, in [1], the inhibition stood at 58.1%. For the same molecule, the Ratio in [2] fell in the range of 7 to 23.
